According to patent US20110104301A1, “METHODS OF REDUCING PAIN AND INFLAMMATION” (Georgetown University, A Congressionally Chartered …, priority 2008, published 2011):
Entries after “also recorded” stand apart in the source; their conditions may differ.

Experiments:
TRPV1 [1] = molecular target: T1, TRPV1 (Mus musculus, UniProt Q704Y3); test: Patch-clamp of capsaicin-sensitive sensory neurons (nodose ganglia); format: cell-based
T1 construct: endogenous in cells; host or cells: primary nodose ganglion neurons of adult C57Bl6/J mice
T1 sequence (Q704Y3 whole entry): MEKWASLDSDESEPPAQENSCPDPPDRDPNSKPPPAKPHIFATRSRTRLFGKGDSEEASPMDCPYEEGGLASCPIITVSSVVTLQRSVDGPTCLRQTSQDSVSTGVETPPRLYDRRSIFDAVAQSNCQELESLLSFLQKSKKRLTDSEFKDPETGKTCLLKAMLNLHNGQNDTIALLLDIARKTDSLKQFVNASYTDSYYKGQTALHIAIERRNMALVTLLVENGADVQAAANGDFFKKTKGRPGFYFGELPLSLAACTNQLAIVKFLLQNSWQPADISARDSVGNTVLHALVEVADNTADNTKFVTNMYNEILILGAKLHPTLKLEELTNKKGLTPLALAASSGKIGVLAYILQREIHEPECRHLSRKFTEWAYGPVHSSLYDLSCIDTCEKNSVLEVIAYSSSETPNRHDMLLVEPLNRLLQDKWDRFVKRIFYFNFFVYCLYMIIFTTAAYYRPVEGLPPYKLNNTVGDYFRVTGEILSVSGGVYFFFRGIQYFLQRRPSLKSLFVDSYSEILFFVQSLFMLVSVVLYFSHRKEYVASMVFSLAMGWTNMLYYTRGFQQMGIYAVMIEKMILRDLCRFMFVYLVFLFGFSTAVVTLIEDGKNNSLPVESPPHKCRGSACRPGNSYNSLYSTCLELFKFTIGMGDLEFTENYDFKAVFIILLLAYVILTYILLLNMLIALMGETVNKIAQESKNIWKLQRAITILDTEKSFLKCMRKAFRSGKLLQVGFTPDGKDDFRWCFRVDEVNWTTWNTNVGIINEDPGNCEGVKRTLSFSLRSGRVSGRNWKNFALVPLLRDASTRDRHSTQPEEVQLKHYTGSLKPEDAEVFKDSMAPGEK
Protocol: (§1) HEK cell and sensory neuron electrophysiology. HEK 293F cells (Invitrogen) were cultured in DMEM supplemented with 1% non-essential amino acids and 10% fetal calf serum. Cell cultures were maintained at 37° C. with 5% CO2. Cells were transfected with rat TRPV 1 (gift of David Julius), and GFP cDNA using Lipofectamine™ Transfection Reagent (Invitrogen) and used 24-48 h after transfection. Nodose ganglia were obtained from adult mice (C57B16/J and TRPV1-null), cut, digested with collagenase, and cultured in Neurobasal +2% B-27 medium (Invitrogen), 0.1% L-glutamine and 1% penicillin/streptomycin on poly-D lysine-coated glass coverslips at 37° C. in 5% CO2. Neurons were used within 24-36 hr of culture. Whole-cell and single-channel patch clamp recordings were performed using an EPC8 amplifier (HEKA). The current signal was low-pass filtered at 1-3 kHz and sampled at 4 kHz. Currents were further filtered for display purposes. For whole-cell and excised patch recordings the bath solution contained (in mM): 140 NaCl, 4 KCl, 1 MgCl2, 1 EGTA, 10 HEPES, 10 glucose pH 7.3 (290 mOsm). The pipette solution contained (in mM): 140 CsC1, 10 NaCl, 10 HEPES, 5 EGTA, 2 Mg ATP and 0.03 GTP, pH 7.3. The peak amplitudes measured either during the prepulse or the tail current (within 1 ms) were plotted as a function of the test potential and normalized to the maximal current obtained from the following Boltzmann function: […]

[2] = system: AITC-sensitive DRG neurons; test: Voltage- and current-clamp of DRG sensory neurons; format: cell-based, mouse; conditions: camphor 0.5 mM, propofol 100 μM
Protocol: (§2) Electrophysiology. HEK 293F cells were transfected with rat TRPV1, TRPA1, and TRPM8 (gift of David Julius, University of California, San Francisco). Dorsal root ganglia were cultured from adult mice (C57B16/J wild type and TRPV1-null, and mixed B6/129 background TRPA1-null) in Neurobasal +2% B-27 medium (Invitrogen), 0.1% L-glutamine and 1% penicillin/streptomycin. Whole-cell and single-channel patch-clamp recordings were performed by using an EPC8 amplifier (HEKA Electronics). For whole-cell and excised patch recordings the bath solution contained 140 mMNaCl, 4 mMKCl, 1 mMMgCl2, 1.2 mMCaCl2, 10 mMHepes, 10 mM glucose, pH 7.3. For cell-attached experiments, NaCl was replaced with KCl in the bath solution. The pipette solution contained 140 mM NaCl or KCl, 10 mM Hepes, 5 mM EGTA, pH 7.3. For neuronal recording NaCl was replaced with K-gluconate (plus 1 mMATP, 0.2 mM GTP). Solutions were applied via a gravity-fed system. Separate outlets were used to apply capsaicin and AITC solutions to avoid contamination. Voltage-dependent properties were measured as described in Matt and Ahern, J. Physiol. 585:469-482 (2007). Current-voltage measurements comprised a 200-ms ramp from −150 mV to +200 mV. The baseline currents under control conditions were subtracted. For cell-attached experiments, peak amplitudes were measured from all-points histograms, and open probability was measured as NPo>750 ms. Defolliculated Xenopus laevis oocytes were injected with ≈10 ng of hTRPA1 (gift of Ardem Patapoutian, The Scripps Research Institute, La Jolla, Calif.). Oocytes were placed in a Perspex chamber and continuously superfused (5 ml min^−1) with Ca^2+-free solution containing 100 mM NaCl, 2.5 mM KCl, 5 mM Hepes, 1 mM MgC12 and titrated to pH 7.3 with ˜5 mM NaOH.

[3] = system: DRG neurons from TRPA1-null mice; test: Ca2+ imaging in DRG neurons from TRPA1-null mice; format: cell-based, mouse; conditions: capsaicin 100 nM
Protocol: Ca^2+ Imaging. Neurons were loaded with 1 μM Fluo4-AM (Molecular Probes) for 20 min and washed for a further 10-20 min before recording. The dye was excited at 488±15 nm. Emitted fluorescence was filtered with a 535±25 nm bandpass filter, captured by a SPOT RT digital camera (Diagnostic Instruments) and read into a computer. Analysis was performed offline by using Simple PCI software (Compix Inc.).

mice [4] = test: Nocifensive behavior after topical application to the nasal epithelium; format: in vivo, mouse; conditions: capsaicin 10 mM
Protocol: (§3) Behavioral Experiments and Neurogenic Inflammation. Animal experiments were performed according to National Institutes of Health and institutional guidelines. […] Nocifensive behavior (nose wiping in sawdust bedding) was recorded for 2 min with a video camera and the duration was subsequently measured by a blinded observer. […] Electromyographic (EMG) activity was recorded via platinum electrodes from the semitendinosus muscle in mice anesthetized with urethane (1.3 g/kg) as described in Ando and Watanabe, Br J. Anaesth. […] The EMG signal was recorded by using a low-pass cutoff frequency of 200 Hz and integrated offline by using a 100-ms time window. […] Ear thickness was recorded by using an engineer's micrometer (Mitutoyo Corp.) before mustard-oil application and thereafter every 15 min for 60 min of anesthesia and 60 min of recovery.

mice [5] = test: Flexor reflex response (EMG of semitendinosus muscle) after femoral artery injection; format: in vivo, mouse; conditions: propofol 500 μM, capsaicin 50 μM
Protocol: as §3

TRPV1 [6] = molecular target: T2, TRPV1 (Rattus norvegicus, UniProt O35433); test: Whole-cell patch-clamp of TRPV1-expressing HEK293 cells; format: cell-based; parameters: expressed in transfected cells; host or cells: HEK 293F (Invitrogen), co-transfected with GFP cDNA; conditions: for Shifts in TRPV1 V1/2 and increases in maximal conductance by alcohols: decanol 0.6 mM, dodecanol 0.1 mM
T2 sequence (O35433 whole entry): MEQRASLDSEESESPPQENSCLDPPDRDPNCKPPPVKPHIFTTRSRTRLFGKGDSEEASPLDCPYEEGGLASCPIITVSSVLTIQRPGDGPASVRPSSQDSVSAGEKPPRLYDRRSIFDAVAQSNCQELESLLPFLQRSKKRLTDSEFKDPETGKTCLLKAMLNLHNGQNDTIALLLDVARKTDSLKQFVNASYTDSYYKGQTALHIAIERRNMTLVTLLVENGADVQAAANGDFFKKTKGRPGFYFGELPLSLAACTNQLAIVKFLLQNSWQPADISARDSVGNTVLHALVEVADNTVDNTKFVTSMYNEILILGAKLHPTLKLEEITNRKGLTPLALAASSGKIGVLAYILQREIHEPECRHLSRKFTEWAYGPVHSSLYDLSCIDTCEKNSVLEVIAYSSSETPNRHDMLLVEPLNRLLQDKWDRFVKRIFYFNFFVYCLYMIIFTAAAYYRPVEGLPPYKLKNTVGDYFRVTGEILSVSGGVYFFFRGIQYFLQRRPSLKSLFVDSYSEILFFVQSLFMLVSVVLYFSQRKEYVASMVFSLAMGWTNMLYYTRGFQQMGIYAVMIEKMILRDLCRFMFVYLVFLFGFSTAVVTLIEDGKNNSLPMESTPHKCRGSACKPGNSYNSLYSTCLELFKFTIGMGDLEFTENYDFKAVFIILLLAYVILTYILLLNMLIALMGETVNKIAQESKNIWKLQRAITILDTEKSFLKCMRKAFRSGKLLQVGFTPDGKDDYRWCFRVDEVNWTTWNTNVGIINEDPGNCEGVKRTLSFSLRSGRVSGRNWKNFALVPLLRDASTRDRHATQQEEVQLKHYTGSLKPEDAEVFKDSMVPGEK
Protocol: (§4) Electrophysiology. […] Whole-cell and single-channel patch-clamp recordings were performed by using an EPC8 amplifier (HEKA Electronics). For whole-cell and excised patch recordings the bath solution contained 140 mMNaCl, 4 mMKCl, 1 mMMgCl2, 1.2 mMCaCl2, 10 mMHepes, 10 mM glucose, pH 7.3. For cell-attached experiments, NaCl was replaced with KCl in the bath solution. […] For neuronal recording NaCl was replaced with K-gluconate (plus 1 mMATP, 0.2 mM GTP). Solutions were applied via a gravity-fed system. […] Voltage-dependent properties were measured as described in Matt and Ahern, J. Physiol. […] The baseline currents under control conditions were subtracted. For cell-attached experiments, peak amplitudes were measured from all-points histograms, and open probability was measured as NPo>750 ms. Defolliculated Xenopus laevis oocytes were injected with ≈10 ng of hTRPA1 (gift of Ardem Patapoutian, The Scripps Research Institute, La Jolla, Calif.).
as §1, with “HEK 293F cells (Invitrogen) were cultured in DMEM supplemented with 1% non-essential amino acids and 10% fetal calf serum.” left out

TRPV1 [7] = molecular target: T2, TRPV1; test: Voltage-clamp of TRPV1-expressing Xenopus oocytes (capsaicin, protons, heat); format: cell-based; conditions: VGAs 0.6 mM, pH 5.5
Protocol: Oocyte electrophysiology. […] Oocytes were placed in a Perspex chamber and continuously superfused (5 ml min-1) with Ca2+-free solution containing (in mM): 100 NaCl, 2.5 KCl, 5 HEPES, 1 MgCl2 and titrated to pH 7.3 with ˜5 mM NaOH. For solutions <pH 6.0, HEPES was replaced with either 5 mM MES or 5 mM sodium citrate. Oocytes were routinely voltage-clamped at −60 mV at 22-23° C. For heat activation, bath temperature was raised from ˜22-50° C. over ˜100 s using an in-line solution heater (Warner Instruments). The temperature was continuously monitored with a probe placed within 2 mm of the oocyte. The temperature-activation threshold was defined as a 20% increase in current above baseline.
Volatile general anesthetics. Saturated stock solutions of volatile general anesthetics (VGAs) were prepared in gas-tight bottles by dissolving excess anesthetic agents in bath solutions and stirring vigorously overnight. From these stock solutions fresh dilutions were made up every 40-60 minutes. Concentrations of volatile anesthetics in the bath solutions were verified using a modified head-space gas chromatography method. The gas chromatograph (Carlo Erba, Milan, Italy) was equipped with a flame ionization detector (FID) and mass spectrometer. The carrier gas was hydrogen (60 kPa column head pressure) and the fused silica capillary column, coated with polysiloxane SE-30, was 25 m×0.25 mm. Injector temperature was 250° C., FID temperature was 300° C. and the oven was maintained at 90° C. Standards were prepared from a mixture of halothane, isoflurane, and sevoflurane dissolved in acetonitrile with enflurane as an internal standard.

[8] = rat at 37° C.; cited from earlier work
TRPM8 = molecular target: T3, TRPM8 (Rattus norvegicus, UniProt Q8R455); test: Whole-cell patch-clamp of TRPM8-expressing HEK293 cells; format: cell-based
T3 construct: expressed in transfected cells; host or cells: HEK 293F
T3 sequence (Q8R455 whole entry): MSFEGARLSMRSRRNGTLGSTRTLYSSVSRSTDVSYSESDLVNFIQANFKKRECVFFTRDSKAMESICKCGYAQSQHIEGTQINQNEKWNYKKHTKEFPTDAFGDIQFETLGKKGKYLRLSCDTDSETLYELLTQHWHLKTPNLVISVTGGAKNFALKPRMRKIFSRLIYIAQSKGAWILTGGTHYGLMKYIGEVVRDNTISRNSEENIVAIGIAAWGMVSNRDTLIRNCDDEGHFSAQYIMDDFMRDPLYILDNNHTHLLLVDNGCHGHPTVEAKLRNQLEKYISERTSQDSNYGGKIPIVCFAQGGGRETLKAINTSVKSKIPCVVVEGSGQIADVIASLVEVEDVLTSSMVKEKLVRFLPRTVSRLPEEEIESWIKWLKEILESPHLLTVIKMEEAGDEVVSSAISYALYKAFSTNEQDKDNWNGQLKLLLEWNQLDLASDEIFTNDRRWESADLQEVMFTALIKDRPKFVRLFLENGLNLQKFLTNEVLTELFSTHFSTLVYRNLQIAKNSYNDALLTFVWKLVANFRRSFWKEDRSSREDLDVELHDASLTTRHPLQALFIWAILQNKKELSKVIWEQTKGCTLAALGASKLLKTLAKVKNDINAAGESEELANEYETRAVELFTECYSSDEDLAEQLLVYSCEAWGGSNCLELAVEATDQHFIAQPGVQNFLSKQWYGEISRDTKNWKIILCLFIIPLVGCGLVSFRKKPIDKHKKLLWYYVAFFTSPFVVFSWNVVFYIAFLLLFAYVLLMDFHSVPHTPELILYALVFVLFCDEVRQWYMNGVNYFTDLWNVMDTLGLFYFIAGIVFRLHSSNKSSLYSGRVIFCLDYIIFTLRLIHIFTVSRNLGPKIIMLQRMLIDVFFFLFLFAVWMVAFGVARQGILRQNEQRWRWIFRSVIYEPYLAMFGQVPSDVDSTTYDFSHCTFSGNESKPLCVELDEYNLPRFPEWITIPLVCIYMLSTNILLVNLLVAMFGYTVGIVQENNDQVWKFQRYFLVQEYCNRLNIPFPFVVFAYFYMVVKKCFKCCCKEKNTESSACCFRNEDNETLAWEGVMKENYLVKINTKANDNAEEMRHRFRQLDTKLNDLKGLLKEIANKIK
Protocol: as §4

TRPA1 = molecular target: T4, TRPA1 (Rattus norvegicus, UniProt Q6RI86); test: Whole-cell patch-clamp of TRPA1-expressing HEK293 cells; format: cell-based; conditions: for Activation of TRPA1 currents by VGAs: 0.9 mM, voltage-clamped HEK293 cells
T4 construct: expressed in transfected cells; host or cells: HEK 293F
T4 sequence (Q6RI86 whole entry): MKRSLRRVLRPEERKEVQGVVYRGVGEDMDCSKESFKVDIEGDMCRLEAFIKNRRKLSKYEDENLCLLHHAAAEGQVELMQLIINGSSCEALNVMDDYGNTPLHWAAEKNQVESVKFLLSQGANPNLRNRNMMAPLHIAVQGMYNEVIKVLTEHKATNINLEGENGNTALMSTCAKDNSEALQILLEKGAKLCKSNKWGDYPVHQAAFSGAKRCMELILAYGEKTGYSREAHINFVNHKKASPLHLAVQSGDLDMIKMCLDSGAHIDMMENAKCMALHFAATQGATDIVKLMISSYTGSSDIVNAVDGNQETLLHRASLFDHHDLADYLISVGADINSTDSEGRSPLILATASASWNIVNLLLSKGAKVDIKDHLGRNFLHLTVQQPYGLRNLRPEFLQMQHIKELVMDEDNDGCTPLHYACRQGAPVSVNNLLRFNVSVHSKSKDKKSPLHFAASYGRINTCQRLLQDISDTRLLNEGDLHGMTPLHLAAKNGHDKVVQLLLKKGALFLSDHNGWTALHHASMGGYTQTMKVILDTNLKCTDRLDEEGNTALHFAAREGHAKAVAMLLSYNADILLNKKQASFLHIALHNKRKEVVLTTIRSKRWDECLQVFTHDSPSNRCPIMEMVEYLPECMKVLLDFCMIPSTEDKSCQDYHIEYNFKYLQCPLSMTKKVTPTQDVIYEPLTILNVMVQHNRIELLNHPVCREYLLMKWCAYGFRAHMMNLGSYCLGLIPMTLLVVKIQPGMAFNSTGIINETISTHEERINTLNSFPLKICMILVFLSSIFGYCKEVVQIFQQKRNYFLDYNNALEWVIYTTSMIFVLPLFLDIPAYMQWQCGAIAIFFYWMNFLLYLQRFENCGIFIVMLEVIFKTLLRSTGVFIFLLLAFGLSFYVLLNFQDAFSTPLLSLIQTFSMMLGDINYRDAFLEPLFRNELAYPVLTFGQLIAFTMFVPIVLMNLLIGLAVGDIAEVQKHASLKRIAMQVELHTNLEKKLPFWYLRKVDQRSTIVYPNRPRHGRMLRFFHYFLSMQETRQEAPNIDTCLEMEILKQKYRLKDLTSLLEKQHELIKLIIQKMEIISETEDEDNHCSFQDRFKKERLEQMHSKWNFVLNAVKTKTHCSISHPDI
Protocol: as §4
Volatile General Anesthetics and Chemicals. Saturated stock solutions of volatile GAs were prepared in gas-tight bottles by dissolving excess anesthetic agents in bath solutions overnight. From these stock solutions fresh dilutions were made up every 40-60 min. Concentrations of GAs in the bath solutions were verified by using a modified head-space gas chromatography method. […] Alcohols with <6 carbons were dissolved directly into extracellular solution, and alcohols containing 6 carbons or more were dissolved in DMSO and then diluted into extracellular solutions that were sonicated for 20 min. All other drugs were prepared as stock solutions in DMSO or ethanol and diluted into physiological solution before experiments.

hTRPA1 = molecular target: T5, hTRPA1 (Homo sapiens, UniProt O75762); test: AITC-evoked currents in TRPA1-expressing Xenopus oocytes; format: cell-based; conditions: VGAs 0.5-0.65 mM, AITC 10 μM
T5 construct: expressed in transfected cells; host or cells: Xenopus laevis oocytes (injected)
T5 sequence (O75762 whole entry): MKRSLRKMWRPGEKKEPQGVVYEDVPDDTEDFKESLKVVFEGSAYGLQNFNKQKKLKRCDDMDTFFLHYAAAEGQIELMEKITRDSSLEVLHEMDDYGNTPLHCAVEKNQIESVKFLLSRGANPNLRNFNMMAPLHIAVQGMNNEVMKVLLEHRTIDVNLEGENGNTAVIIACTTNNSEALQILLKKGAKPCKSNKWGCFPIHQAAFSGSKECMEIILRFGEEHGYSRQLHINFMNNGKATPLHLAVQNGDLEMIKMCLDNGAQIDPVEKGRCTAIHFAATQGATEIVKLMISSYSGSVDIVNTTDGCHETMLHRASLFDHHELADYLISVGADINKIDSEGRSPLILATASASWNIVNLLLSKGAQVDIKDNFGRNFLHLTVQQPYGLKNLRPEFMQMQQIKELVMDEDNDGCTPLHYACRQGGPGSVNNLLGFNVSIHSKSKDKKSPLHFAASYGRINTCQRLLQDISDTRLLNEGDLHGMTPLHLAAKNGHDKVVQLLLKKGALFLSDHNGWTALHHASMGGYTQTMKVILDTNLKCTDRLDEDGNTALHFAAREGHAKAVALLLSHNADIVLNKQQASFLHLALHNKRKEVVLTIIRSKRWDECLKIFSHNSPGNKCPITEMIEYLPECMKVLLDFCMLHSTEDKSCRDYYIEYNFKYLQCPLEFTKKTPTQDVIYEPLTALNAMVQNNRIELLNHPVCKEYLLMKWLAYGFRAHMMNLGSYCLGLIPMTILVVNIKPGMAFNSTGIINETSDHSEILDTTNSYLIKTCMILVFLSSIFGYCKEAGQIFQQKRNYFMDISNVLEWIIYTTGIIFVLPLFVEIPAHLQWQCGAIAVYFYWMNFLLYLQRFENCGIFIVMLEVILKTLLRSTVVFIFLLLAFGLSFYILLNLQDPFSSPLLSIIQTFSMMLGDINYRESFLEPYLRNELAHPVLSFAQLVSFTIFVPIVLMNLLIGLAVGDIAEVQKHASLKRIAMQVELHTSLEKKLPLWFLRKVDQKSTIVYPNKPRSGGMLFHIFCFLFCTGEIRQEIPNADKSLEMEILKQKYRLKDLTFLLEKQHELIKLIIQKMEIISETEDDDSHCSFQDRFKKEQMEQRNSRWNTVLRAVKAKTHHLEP
Protocol: as §2

[9] = isoflurane 0.9 mM, octanol 1 mM

## CC(C)(C)c1ccc(/C=C/C(=O)Nc2ccc3c(c2)OCCO3)cc1 [AMG9810]
TRPV1 [1]
  Inhibition of isoflurane-evoked TRPV1 responses after PDBu: inhibits; also recorded: completely inhibited

## CC12CCC(CC1=O)C2(C)C (centres unmarked) [camphor]
[2]
  Inhibition of propofol-evoked inward currents: blocked; also recorded: sensitive

## COc1cc(CNC(=O)CCCC/C=C/C(C)C)ccc1O [capsaicin]
[3]
  TRPA1-deficient cells sensitive to capsaicin: 43%
Mice [4]
  Nocifensive behavior in TRPV1-null mice: but not in TRPV 1-null mice
  Nocifensive behavior in wild-type mice: produced similar behavior
Mice [5]
  Flexor reflex muscle activity in TRPA1+/− mice: robust responses
  Flexor reflex muscle activity in TRPA1-null mice: robust responses

## Oc1cc2c(cc1O)CN(C(=S)NCCc1ccc(Cl)cc1)CCC2 [capsazepine]
TRPV1 [1]; capsazepine 1 μM, 3 of 3 cells
  Inhibition of responses to isoflurane after BK: completely inhibited

## CCCCCCCCCCO [decanol]
TRPV1 [6]; octanol 1 mM
  Shifts in TRPV1 V1/2 and increases in maximal conductance by alcohols: smaller response

## CCCCCCCCCCCCO [dodecanol]
TRPV1 [6]; octanol 1 mM
  Shifts in TRPV1 V1/2 and increases in maximal conductance by alcohols: without effect

## FC(F)OC(F)(F)C(F)Cl (centres unmarked) [enflurane]
TRPV1 [7]
  Enhancement of proton-evoked currents compared with isoflurane and sevoflurane: significantly more
[8]
  1 MAC equivalent aqueous concentration (published conversion factor): 0.64 mM

## CCOC(=O)c1cncn1[C@H](C)c1ccccc1 [etomidate]
TRPM8; 100 μM, n=5-6
  Change in V1/2 of TRPM8 (ΔV1/2, increase): 25.5 mV

## FC(F)(F)C(Cl)Br (centres unmarked) [halothane]
TRPA1
  Activation of TRPA1 currents by VGAs: without effect
[8]
  1 MAC equivalent aqueous concentration (published conversion factor): 0.27 mM
TRPV1 [6]; VGA 0.9 mM, PDBu 500 nM, room temperature (25° C.)
  Currents evoked after PDBu treatment in TRPV1-expressing HEK293 cells: activates currents

## COC(F)(F)C(Cl)Cl [methoxyflurane]
hTRPA1
  Effect on AITC-evoked currents: did not

## CCCCCCCCO [octanol]
TRPA1; [9]
  Activation of TRPA1 at holding potential −50 mV: selectively activated
TRPA1; octanol 1.8 mM, at +200 mV
  Response relative to 1 mM AITC: < 50%
TRPM8; [9]
  Effects at TRPM8 at holding potential −50 mV: negligible effects
TRPV1 [6]; [9]
  Effects at TRPV1 at holding potential −50 mV: negligible effects
TRPV1 [6]; octanol 1 mM
  Shifts in TRPV1 V1/2 and increases in maximal conductance by alcohols: reached a maximum
TRPV1 [6]; octanol 1.8 mM, at 200 mV
  Response relative to 10 μM capsaicin: ~40%

## FCOC(C(F)(F)F)C(F)(F)F [sevoflurane]
TRPA1
  Activation of TRPA1 currents by VGAs: without effect
hTRPA1
  Effect on AITC-evoked currents: did not
[8]
  1 MAC equivalent aqueous concentration (published conversion factor): 0.35 mM
